Earlier results in patent US20040259949A1, “Method” (priority 2001, published 2004).

Assays:
[1] = mice
[2] = rat model

| Compound | effect of PDT on healing of colonic anastomosis [1] | effect of PDT on viability of normal human fibroblasts (normal human fibroblasts) | influence of PDT on skin wound healing [2] |
| --- | --- | --- | --- |
| NCC(=O)CCC(=O)O [5-ALA, 5-amino-4-oxo-pentanoic acid] | no significant impairment in healing of colonic anastomosis | no effect on viability of normal human fibroblasts | – |
| benzoporphyrin derivative monoacid ring A [BDP-MA] | – | – | did not influence skin wound healing |
